Reference: patent US7579324B2, “Conjugates of biologically active compounds, methods for their preparation and use, formulation and pharmaceutical applications thereof” (c-a-i-r biosciences GmbH, priority 2002, dated 2009)

Tested on: HeLa or JURKAT cells
Assay: Cytotoxicity assay (Alamar Blue) with guanosine rescue
Format: cell-based
Experimental: HeLa cells (DSMZ, ACC 57) and Jurkat cells (DSMZ, ACC 282) in exponential growth phase are exposed for 3 days to test compounds. The number of surviving cells is then determined by the Alamar Blue assay (Serotec Inc.). This assay incorporates a fluorometric growth indicator based on detection of metabolic activity. Specifically, the system incorporates an oxidation-reduction indicator that fluoresces in response to chemical reduction of the growth medium resulting from cell growth. As cells grow in culture, innate metabolic activity results in a chemical reduction of the immediate surrounding environment. Continued growth maintains a reduced environment while inhibition of growth maintains an oxidized environment. […] Fluorescence is monitored at 560 nm (Exc.) and 590 nm Em.
HeLa cells (1×10^3) or JURKAT cells (1×10^3) are plated in 100 μl MEM medium (with Earle's salt; Biochrom KG) containing 10% FBS, 2 mM L-glutamine, and non-essential animo acids in 96-well plates and incubated at 37° C. and 5% CO2 atmosphere. […] The fluorescence is then measured as described above and the LD50 is determined based on a sigmoidal dose response regression. […] Any toxicity still detected can then be ascribed either to other biological effects of the of T—L—C conjugate of mycophenolic acid, or is due to the very high intracellular concentration of mycophenolic acid, following concentrative uptake into the cell.

SMILES: COc1c(C)c2c(c(O)c1C/C=C(\C)CCC(=O)O)C(=O)OC2 [Mycophenolic acid]
- effect in the presence of guanosine (50 μM guanosine in culture medium): completely removed
- IC50 (normal culture conditions, HeLa or JURKAT): < 2000 nM
